Measured values as given in PubChem BioAssay (NCI).
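Compound exposure: 48 hours, 5 concentrations, 96-well plates. At the GI50, growth is halved. TGI is the concentration that stops growth completely.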 Where a SMILES comes first, the peptide text is derived from it. [ ]: non-standard residue; d: D form. The star is where a group is joined. ξ: configuration not given here. dIva = CC[C@@](C)(N)C(=O)O; Aib = CC(C)(N)C(=O)O; ξP = O=C(O)C1CCCN1; βAla = NCCC(=O)O; X5 = OCN*

Legend:
Experiment in all cases: NCI tumour cell line growth inhibition, 48 h
HL-60(TB) leukemia = tested on: HL-60(TB) leukemia
RPMI-8226 leukemia = tested on: RPMI-8226 leukemia
HCT-15 colon = tested on: HCT-15 colon
K-562 leukemia = tested on: K-562 leukemia
OVCAR-3 ovarian = tested on: OVCAR-3 ovarian
MDA-MB-435 = tested on: MDA-MB-435
SK-MEL-28 melanoma = tested on: SK-MEL-28 melanoma
MCF7 breast = tested on: MCF7 breast
ACHN renal = tested on: ACHN renal
HT29 colon = tested on: HT29 colon

Compound | GI50 (HL-60(TB) leukemia) [µM] | TGI (HL-60(TB) leukemia) [µM] | GI50 (RPMI-8226 leukemia) [µM] | TGI (RPMI-8226 leukemia) [µM] | GI50 (HCT-15 colon) [µM] | TGI (HCT-15 colon) [µM] | GI50 (K-562 leukemia) [µM] | TGI (K-562 leukemia) [µM] | GI50 (OVCAR-3 ovarian) [µM] | TGI (OVCAR-3 ovarian) [µM] | GI50 (MDA-MB-435) [µM] | TGI (MDA-MB-435) [µM] | GI50 (SK-MEL-28 melanoma) [µM] | TGI (SK-MEL-28 melanoma) [µM] | GI50 (MCF7 breast) [µM] | TGI (MCF7 breast) [µM] | GI50 (ACHN renal) [µM] | TGI (ACHN renal) [µM] | GI50 (HT29 colon) [µM] | TGI (HT29 colon) [µM]
Nc1cc(N)c2nc(-c3ccccc3)c(Oc3ccc(Cl)c(Cl)c3)nc2c1 | 5.15 | > 100 | 3.51 | > 100 | 20 | > 100 | 3.55 | > 100 | 10.8 | 26.9 | 5.03 | 21.1 | 21.5 | 64.2 | 14.2 | 70.6 | – | – | – | –
COc1ccc2c(c1)C(=O)c1c-2n(CCCNCCO)c(=O)c2cc([N+](=O)[O-])ccc12 | < 0.01 | 0.122 | < 0.01 | 0.0469 | < 0.0211 | 1.19 | – | – | 0.0171 | 0.586 | < 0.01 | 1.06 | 0.0124 | 1.5 | < 0.01 | 0.0264 | < 0.01 | < 0.034 | < 0.01 | 1.09
O=C(O)CSc1nnc2c3ccccc3c3ccccc3c2n1 | – | – | – | 99.4 | – | > 100 | – | > 100 | – | > 100 | – | > 100 | – | > 100 | – | > 100 | – | > 100 | – | > 100
O=C(CN1CCN(c2ccccn2)CC1)Nc1ccc(Cl)cc1C(=O)c1ccccc1Cl | 5.51 | > 100 | 4.64 | > 100 | 7.85 | > 100 | 3.55 | > 100 | – | – | 28.4 | > 100 | > 100 | > 100 | 9.26 | > 100 | 56.1 | > 100 | 8.92 | > 100
CCN1C(=O)N(CC)C2C1NN=c1s/c(=C\c3cnc(C)n3C)c(=O)n12 (stereo not given) | 1.61 | 4.03 | 3.47 | > 100 | 3.42 | > 100 | 0.61 | > 100 | 0.593 | 3.41 | 0.321 | 1.36 | 5.2 | > 100 | 0.676 | > 100 | 5.94 | > 100 | – | –
CC[C@@](C)(NC(=O)[C@H](C)NC(=O)CCNC(=O)C(C)(C)NC(=O)[C@H](C)NC(=O)[C@@H]1CCCN1C(=O)[C@@](C)(CC)NC(=O)[C@H](Cc1ccccc1)NC(=O)C1CCCN1C(=O)C(C)(C)NC(=O)C1CCCN1C(=O)C(C)(C)NC(C)=O)C(=O)NCCC(=O)N[C@@H](CC(C)C)C(=O)NC(C)(C)C(=O)NCCC(=O)N[C@@H](CC(C)C)C(=O)NC(C)(C)C(=O)NC(C)(C)C(=O)N[C@@H](CC(C)C)C(=O)NCCC(=O)NCO (stereo not given in full) (Ac-[Aib][ξP][Aib][ξP]F[dIva]PA[Aib][βAla]A[dIva][βAla]L[Aib][βAla]L[Aib][Aib]L[βAla]-X5) | 0.318 | 0.65 | – | – | 0.229 | 0.446 | 0.0791 | 0.332 | 0.144 | 0.353 | 0.142 | 0.357 | 0.187 | 0.431 | 0.0651 | 0.286 | 0.199 | 0.428 | 0.197 | 0.414
CC1SC(c2cccc(Cl)c2)N(NC(=O)C(O)c2ccccc2)C1=O (stereo not given) | – | – | 43.2 | > 100 | > 100 | > 100 | 69.4 | > 100 | > 100 | > 100 | > 100 | > 100 | > 100 | > 100 | > 100 | > 100 | > 100 | > 100 | > 100 | > 100
